Test results published in US12263171B2, “7-, 8-, and 10-substituted amino triazolo quinazoline derivatives as adenosine receptor antagonists, pharmaceutical compositions and their use” (Merck Sharp & Dohme LLC, priority 2018, dated 2025).

How the values were obtained:
[1] = target: T1, human A2a adenosine receptor (Homo sapiens (Human), UniProt P29274); experiment: A2A antagonism in cAMP cell-based assay (LANCE cAMP, HEK293 cells, 300 nM adenosine); conditions: values marked *: cAMP cell-based assay
Procedure: Measurement of A2A and A2B Antagonism in cAMP Cell-Based Assay
All subsequent liquid additions were performed using a multichannel pipettor. […] After this time 5 μL of either 300 nM or 600 nM adenosine (Sigma Cat. No. A9251) for A2A and A2B respectively was added and incubated for 30 minutes at 37° C. and 5% CO2 in a humidified environment. At this time detection mix was prepared by combining the LANCE Eu-W8044 labeled streptavidin and. Biotin-cAMP in detection buffer according to the manufacturers protocol. […] Curve fitting of the percent effect data versus the log of compound concentration used a 4-parameter concentration response curve fitting algorithm to calculate IC50 values.

[2] = target: T2, human A2b adenosine receptor (Homo sapiens (Human), UniProt P29275); experiment: A2B antagonism in cAMP cell-based assay (LANCE cAMP, HEK293 cells, 600 nM adenosine); conditions: for IC50: values marked *: cAMP cell-based assay; for *A2B cAMP % inh. @ 10000 nM: marked *
[3] = target: T2, human A2b adenosine receptor; experiment: A2b radioligand filtration binding assay (tritiated proprietary A2b antagonist, HEK293 membranes); conditions: @ 10000 nM, unstarred
Procedure, shortened: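 Displacement of a tritiated proprietary A2b antagonist from membranes of HEK293 cells recombinantly expressing human A2b receptor, measured by filtration and scintillation counting. Percent effect was normalized to total and non-specific binding and fitted with a 4-parameter logistic to give IC50.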

[4] = target: T1, human A2a adenosine receptor; experiment: A2a receptor affinity radioligand binding assay ([3H] SCH58261, membranes from HEK293 or CHO cells); conditions: unstarred values: radioligand binding
Procedure, shortened: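 Displacement of tritiated SCH58261 (working dilution 4 nM) from recombinant human A2a receptor membranes (HEK293 or CHO), 60 min at room temperature in Tris pH 7.4/MgCl2 buffer after 15–30 min compound preincubation. Scintillation counting after filtration; normalized percent effect fitted 4-parameter logistic for IC50.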

T1 sequence (P29274 whole entry): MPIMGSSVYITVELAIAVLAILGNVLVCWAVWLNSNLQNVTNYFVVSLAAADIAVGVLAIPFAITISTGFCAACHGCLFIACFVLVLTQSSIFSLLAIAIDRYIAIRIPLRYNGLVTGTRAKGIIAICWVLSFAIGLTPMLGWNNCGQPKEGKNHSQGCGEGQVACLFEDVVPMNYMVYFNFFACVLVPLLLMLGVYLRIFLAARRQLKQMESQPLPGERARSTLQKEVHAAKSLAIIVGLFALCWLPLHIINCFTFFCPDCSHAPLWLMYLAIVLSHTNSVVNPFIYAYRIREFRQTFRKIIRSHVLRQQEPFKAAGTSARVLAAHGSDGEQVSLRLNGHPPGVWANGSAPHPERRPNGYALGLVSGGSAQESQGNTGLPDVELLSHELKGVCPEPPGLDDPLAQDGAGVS
T2 sequence (P29275 whole entry): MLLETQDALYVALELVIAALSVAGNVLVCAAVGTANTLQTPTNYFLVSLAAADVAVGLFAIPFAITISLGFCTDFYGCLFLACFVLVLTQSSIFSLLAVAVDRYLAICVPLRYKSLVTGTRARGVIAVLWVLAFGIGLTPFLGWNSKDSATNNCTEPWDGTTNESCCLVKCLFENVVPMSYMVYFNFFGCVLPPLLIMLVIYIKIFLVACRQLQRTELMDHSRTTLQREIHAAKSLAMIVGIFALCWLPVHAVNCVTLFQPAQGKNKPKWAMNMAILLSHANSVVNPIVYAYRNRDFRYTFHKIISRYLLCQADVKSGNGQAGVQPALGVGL

| Structure (SMILES) | IC50 [1] [nM] | IC50 [2] [nM] | A2B binding % inh. @ 10000 nM [3] [% inh. @ 10000 nM] | IC50 [4] [nM] | *A2B cAMP % inh. @ 10000 nM [2] [% inh. @ 10000 nM*] |
| --- | --- | --- | --- | --- | --- |
| COc1ccc2c(c1)nc(N)n1nc([C@@H]3C[C@@H](C(F)(F)F)CN(c4cnn(CC(C)(C)O)c4)C3)nc21 (single isomer, unassigned) [Example 218B, 1-(4-((3R,5R or 3S,5S)-3-(5-amino-8-methoxy-[1,2,4]triazolo[1,5-c]quinazolin-2-yl)-5-(trifluoromethyl)piperidin-1-yl)-1H-pyrazol-1-yl)-2-methylpropan-2-ol] | 635 | > 10000 | – | – | – |
| COc1ccc2c(c1)nc(N)n1nc([C@@H]3C[C@@H](C)CN(c4cnn(C(C)(C)CO)c4)C3)nc21 [Example 222D, 2-(4-((3R,5R)-3-(5-amino-8-methoxy-[1,2,4]triazolo[1,5-c]quinazolin-2-yl)-5-methylpiperidin-1-yl)-1H-pyrazol-1-yl)-2-methylpropan-1-ol] | 33.3 | 655 | – | – | – |
| COc1cccc2c1nc(N)n1nc([C@H]3CC[C@@H](C)N(c4cn(CC(C)(C)O)nc4C)C3)nc21 [Example 145D, 1-(4-((2R,5S)-5-(5-amino-7-methoxy-[1,2,4]triazolo[1,5-c]quinazolin-2-yl)-2-methylpiperidin-1-yl)-3-methyl-1H-pyrazol-1-yl)-2-methylpropan-2-ol] | 30.3 | 461 | – | – | – |
| COc1cccc2c1nc(N)n1nc([C@@H]3CCCN(c4cc(C(F)(F)F)ccn4)C3)nc21 [Example 116, (R)-7-melhoxy-2-(1-(4-(trifluoromethyl)pyridin-2-yl)piperidin-3-yl)-[1,2,4]triazolo[1,5-c]quinazolin-5-amine] | 40.5 | – | 18 | – | – |
| COc1cccc2c1nc(N)n1nc([C@@H]3CCCN(c4cnn(C5CCC5)c4)C3)nc21 [Example 18, (R)-2-(1-(1-cyclobutyl-1H-pyrazol-4-yl)piperidin-3-yl)-7-methoxy-[1,2,4]triazolo[1,5-c]quinazolin-5-amine] | – | 46.4 | – | 1 | – |
| COc1cccc2c1nc(N)n1nc(C3CCC(C)N(c4cnn(C5CC5)c4)C3)nc21 (single isomer, unassigned) [Example 141D] | – | 1650 | – | 3.1 | – |
| COc1cccc2c1nc(N)n1nc([C@@H]3CCCN(c4cnn([C@H]5CC[C@H](O)C5)c4)C3)nc21 [Example 29, (1S,3S)-3-(4-((R)-3-(5-amino-7-methoxy-[1,2,4]triazolo[1,5-c]quinazolin-2-yl)piperidin-1-yl)-1H-pyrazol-1-yl)cyclopentan-1-ol] | – | 24.7 | – | 1.3 | – |
| COc1cccc2c1nc(N)n1nc([C@@H]3CCCN(c4cnn(CC5CC5)c4)C3)nc21 [Example 16, (R)-2-(1-(1-(cyclopropylmethyl)-1H-pyrazol-4-yl)piperidin-3-yl)-7-methoxy-[1,2,4]triazolo[1,5-c]quinazolin-5-amine] | – | 92.8 | – | 0.8 | – |
| COc1cccc2c1nc(N)n1nc([C@@H]3CCCN(c4cnn(C5COC5)c4)C3)nc21 [Example 39, (R)-7-methoxy-2-(1-(1-(oxetan-3-yl)-1H-pyrazol-4-yl)piperidin-3-yl)-[1,2,4]triazolo[1,5-c]quinazolin-5-amine] | – | 29.4 | – | 2.5 | – |
| CCC(O)(CC)Cn1cc(N2CCC[C@@H](c3nc4c5cccc(OC)c5nc(N)n4n3)C2)cn1 [Example 40] | – | 19.7 | – | 3.1 | – |
| COc1cccc2c1nc(N)n1nc(C3CCC(C)N(c4cnn(CC(C)(C)O)c4)C3)nc21 (single isomer, unassigned) [Example 143B, 1-(4-((2S,5S or 2R,5R)-5-(5-amino-7-methoxy-[1,2,4]triazolo[1,5-c]quinazolin-2-yl)-2-methylpiperidin-1-yl)-1H-pyrazol-1-yl)-2-methylpropan-2-ol] | – | 604 | – | 0.9 | – |
| COc1cccc2c1nc(N)n1nc([C@H]3C[C@@H](F)CN(c4cnn(C5CC5)c4)C3)nc21 [Example 148A] | – | 234 | – | 1 | – |
| COc1cccc2c1nc(N)n1nc(C3CN(c4cnn(C5CC5)c4)CC(F)(F)C3)nc21 (single isomer, unassigned) [Example 154A] | – | 386 | – | 0.8 | – |
| COc1cccc2c1nc(N)n1nc([C@@H]3CCCN(c4cnccc4C(F)(F)F)C3)nc21 [Example 108, (R)-7-methoxy-2-(1-(4-(trifluoromethyl)pyridin-3-yl)piperidin-3-yl)-[1,2,4]triazolo[1,5-c]quinazolin-5-amine] | – | – | – | 12.1 | 18 |
| CCn1ccc(N2CCC[C@@H](c3nc4c5cccc(OC)c5nc(N)n4n3)C2)cc1=O [Example 91, (R)-4-(3-(5-amino-7-methoxy-[1,2,4]triazolo[1,5-c]quinazolin-2-yl)piperidin-1-yl)-1-ethylpyridin-2(1H)-one] | – | 775 | – | 1.8 | – |
| COc1cccc2c1nc(N)n1nc([C@@H]3CCCN(c4ccccn4)C3)nc21 [Example 119] | – | 18.1 | – | 1.2 | – |
| COc1cccc2c1nc(N)n1nc([C@@H]3CCCN(c4cc(=O)n(C)c5ccccc45)C3)nc21 [Example 90, (R)-4-(3-(5-amino-7-methoxy-[1,2,4]triazolo[1,5-c]quinazolin-2-yl)piperidin-1-yl)-1-methylquinolin-2(1H)-one] | – | 5930 | – | 1.9 | – |
| COc1cccc2c1nc(N)n1nc([C@@H]3CCCN(c4cncn4C)C3)nc21 [Example 86, (R)-7-methoxy-2-(1-(1-methyl-1H-imidazol-5-yl)piperidin-3-yl)-[1,2,4]triazolo[1,5-c]quinazolin-5-amine] | – | 146 | – | 2.1 | – |
| COc1cccc2c1nc(N)n1nc(C3CN(c4cnn(C5CC5)c4)CC(F)(F)C3)nc21 (single isomer, unassigned) [Example 154B] | – | – | – | 17.4 | 13 |
| COc1cccc2c1nc(N)n1nc([C@@H]3CCCN(c4ccc(=O)n(CC(F)(F)F)c4)C3)nc21 [Example 97, (R)-5-(3-(5-amino-7-methoxy-[1,2,4]triazolo[1,5-c]quinazolin-2-yl)piperidin-1-yl)-1-(2,2,2-trifluoroethyl)pyridin-2(1H)-one] | – | 62.4 | – | 4.4 | – |
| COc1cccc2c1nc(N)n1nc(C3CN(c4cnn(CC(F)(F)F)c4)CC(F)(F)C3)nc21 (single isomer, unassigned) [Example 155B] | – | 301 | – | 0.7 | – |
| CCn1cc(N2CC[C@@H](c3nc4c5cccc(OC)c5nc(N)n4n3)C2)cn1 [Example 160, (R)-2-(1-(1-ethyl-1H-pyrazol-4-yl)pyrrolidin-3-yl)-7-methoxy-[1,2,4]triazolo[1,5-c]quinazolin-5-amine] | – | 395 | – | 19 | – |
| COc1cccc2c1nc(N)n1nc([C@@H]3CCCN(c4ccc(=O)n(C5CC5)c4)C3)nc21 [Example 95, (R)-5-(3-(5-amino-7-methoxy-[1,2,4]triazolo[1,5-c]quinazolin-2-yl)piperidin-1-yl)-1-cyclopropylpyridin-2(1H)-one] | – | 59.1 | – | 2.3 | – |
| COc1cccc2c1nc(N)n1nc([C@@H]3CCCN(c4cnn(C(F)F)c4)C3)nc21 [Example 3, (R)-2-(1-(1-(difluoromethyl)-1H-pyrazol-4-yl)piperidin-3-yl)-7-methoxy-[1,2,4]triazolo[1,5-c]quinazolin-5-amine] | – | 42.6 | – | 1.3 | – |
| COc1ccc2c(c1)nc(N)n1nc([C@@H]3CCCN(c4cnn([C@H](C)[C@@H](C)O)c4)C3)nc21 [Example 220B, (2R,3R)-3-(4-((R)-3-(5-amino-8-methoxy-[1,2,4]triazolo[1,5-c]quinazolin-2-yl)piperidin-1-yl)-1H-pyrazol-1-yl)butan-2-ol] | – | 52.8 | – | 1.39 | – |
| COc1cccc2c1nc(N)n1nc([C@@H]3CCCN(c4cnn(C5CC5)c4)C3)nc21 [Example 7, (R)-2-(1-(1-cyclopropyl-1H-pyrazol-4-yl)piperidin-3-yl)-7-methoxy-[1,2,4]triazolo[1,5-c]quinazolin-5-amine] | – | 38.5 | – | 1.4 | – |
| COc1ccc2c(c1)nc(N)n1nc([C@@H]3CCCN(c4cnn(C)c4)C3)nc21 [Example 177, (R)-8-methoxy-2-(1-(1-methyl-1H-pyrazol-4-yl)piperidin-3-yl)-[1,2,4]triazolo[1,5-c]quinazolin-5-amine] | – | 132 | – | 4.7 | – |
| COc1cccc2c1nc(N)n1nc([C@@H]3CCCN(c4cnn(C(C)(C)C)c4)C3)nc21 [Example 6, (R)-2-(1-(1-(tert-butyl)-1H-pyrazol-4-yl)piperidin-3-yl)-7-methoxy-[1,2,4]triazolo[1,5-c]quinazolin-5-amine] | – | 30 | – | 1.3 | – |
| CC[C@@H]1CC[C@@H](c2nc3c4cccc(OC)c4nc(N)n3n2)CN1c1cnn(CC(C)(C)O)c1 [Example 216A, 1-(4-((2R,5R)-5-(5-amino-7-methoxy-[1,2,4]triazolo[1,5-c]quinazolin-2-yl)-2-ethylpiperidin-1-yl)-1H-pyrazol-1-yl)-2-methylpropan-2-ol] | – | 651 | – | 33.9 | – |
